Measured values as given in US12252481B2, “Anti-viral compounds” (Aligos Therapeutics, Inc., priority 2021, dated 2025).
Like-named read-outs stand apart in the source and are kept apart here.

Experiments:
[1] = molecular target: T1, SARS-Cov-2 3CLpro (Severe acute respiratory syndrome coronavirus 2, UniProt P0DTD1); test: biochemical; details: read-out: SARS-Cov-2 IC50 (class)
T1 construct: 3CLpro and HRV3C was added using a Multidrop Combi

[2] = test system: B.1.1.7 lineage SARS-CoV-2; test: microbe, parasite or virus in culture; format: cell-based; details: read-out: A549-dual_ACE2_TMPRSS2 (EC50)
[3] = test system: HeLa cells
[4] = test system: Vero E6-eGFP cells; details: read-out: VeroE6 + CP (CC50), absence of virus, numeric values
[5] = molecular target: T2, HRV3C (Human rhinovirus 14, UniProt P03303); test: biochemical; design: species or system HRV
T2 construct: 3CLpro and HRV3C was added using a Multidrop Combi
T2 sequence (P03303 1538-1719): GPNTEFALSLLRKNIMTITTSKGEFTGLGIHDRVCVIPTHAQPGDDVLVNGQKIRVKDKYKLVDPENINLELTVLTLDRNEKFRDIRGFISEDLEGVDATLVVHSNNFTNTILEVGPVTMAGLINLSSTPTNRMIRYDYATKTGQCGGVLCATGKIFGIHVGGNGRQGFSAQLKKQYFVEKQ

[6] = test system: A549-dual_ACE2_TMPRSS2 cells
[7] = test system: human beta-coronavirus OC43; test: OC43 coronavirus antiviral assay in HeLa cells (cytopathic effect, cell-titer-glo); format: cell-based; details: 6 days at 33° C., read-out: EC50 (class)
[8] = molecular target: T3, human cathepsin L (Homo sapiens, UniProt P07711); test: Cathepsin L assay (Z-FR-AMC fluorescence); format: biochemical; details: 10 pM human cathepsin L, 30 mins preincubation, Z-FR-AMC 2 μM
T3 construct: purchased R&D Systems
T3 sequence (P07711 114-333): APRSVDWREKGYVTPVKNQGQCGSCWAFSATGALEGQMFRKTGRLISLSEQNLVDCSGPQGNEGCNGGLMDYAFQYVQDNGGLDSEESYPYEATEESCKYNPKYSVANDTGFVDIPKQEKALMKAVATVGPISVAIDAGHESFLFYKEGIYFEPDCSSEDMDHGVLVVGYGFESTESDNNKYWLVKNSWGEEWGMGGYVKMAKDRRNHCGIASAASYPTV
Outline: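 Human cathepsin L (10 pM) was preincubated 30 min with compound, then reactions were started with Z-FR-AMC substrate (2 μM final). AMC fluorescence (355/460 nm) was read every 2 min over 30 min. IC50 came from a four-parameter curve fit.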

[9] = test system: HeLa cells; test: Cytotoxicity in HeLa cells without OC43 virus (cell-titer-glo); details: HeLa cells without OC43 virus
[10] = test system: SARS-CoV-2-GHB-03021/2020; format: cell-based; details: read-out: VeroE6 + CP (EC50)
[11] = 3CLpro, 30 mins preincubation, SAMDI-MS
[12] = HRV3C, 30 mins preincubation, SAMDI-MS, read-out: HRV IC50 (bound)
[13] = read-out: A549-dual_ACE2_TMPRSS2 (CC50), assay medium without virus, MTS, numeric values

Structure (SMILES) | IC50 [1, 11] [µM] | EC50 [2] [µM] | CC50 [3] [µM] | CC50 [4] [µM] | IC50 [5, 12] [µM] | CC50 [6, 13] [µM] | EC50 [7] [µM] | IC50 [8] [µM] | IC50 [1] [µM] | CC50 [9] [µM] | EC50 [10] [µM] | IC50 ([5]; read-out: HRV IC50 (bound)) [µM] | CC50 [6] [µM] | IC50 ([5]; HRV3C, 30 mins preincubation, SAMDI-MS, read-out: HRV IC50 (class)) [µM] | CC50 ([9]; read-out: CC50 (class)) [µM]
N#C[C@H](C[C@@H]1CCNC1=O)NC(=O)[C@@H]1[C@@H]2[C@H](CN1C(=O)[C@@H]1C[C@]13CCCc1ccccc13)[C@@H]1C=C[C@H]2C1 (single isomer, unassigned) [Example 8] | 0.02 to 0.2 | < 0.1 | > 100 | > 50 | > 10 | > 10 | 0.1 to 1 | ≥ 10 |  |  |  |  |  |  | 
CC1(C(=O)N[C@H](C(=O)N2C[C@H]3[C@@H]([C@H]2C(=O)N[C@H](C#N)C[C@@H]2CCNC2=O)[C@H]2C=C[C@@H]3C2)C(C)(C)C)CC1 [Compound 47, (1R,2S,3S,6R,7S)—N-[(1S)-1-cyano-2-[(3S)-2-oxopyrrolidin-3-yl]ethyl]-4-[(2S)-3,3-dimethyl-2-[(1-methylcyclopropyl)formamido]butanoyl]-4-azatricyclo[5.2.1.0^{2,6}]dec-8-ene-3-carboxamide] | 0.02 to 0.2 |  | > 100 | > 50 | > 10 | > 10 | 0.1 to 1 | ≥ 10 |  |  |  |  |  |  | 
CC(C)(C)[C@H](NC(=O)C(F)(Cl)Cl)C(=O)N1C[C@H]2[C@@H]([C@H]1C(=O)N[C@H](C#N)C[C@@H]1CCNC1=O)[C@H]1C=C[C@@H]2C1 [Compound 48, (1R,2S,3S,6R,7S)—N-[(1S)-1-cyano-2-[(3S)-2-oxopyrrolidin-3-yl]ethyl]-4-[(2S)-2-(2,2-dichloro-2-fluoroacetamido)-3,3-dimethylbutanoyl]-4-azatricyclo[5.2.1.0^{2,6}]dec-8-ene-3-carboxamide] |  | < 0.1 |  | > 50 | > 10 | > 10 | < 0.1 | ≥ 10 | < 0.02 | > 100 | < 0.1 |  |  |  | 
CC(C)(C)[C@H](NC(=O)C(F)(F)F)C(=O)N1C[C@H]2[C@@H]([C@H]1C(=O)N[C@H](C#N)CC1Cn3ncnc3NC1=O)[C@H]1C=C[C@@H]2C1 (stereo partly drawn) [Compound 51, (1R,2S,3S,6R,7S)—N-[(1S)-1-cyano-2-{5-oxo-4H,6H,7H-[1,2,4]triazolo[1,5-α]pyrimidin-6-yl}ethyl]-4-[(2S)-3,3-dimethyl-2-(2,2,2-trifluoroacetamido)butanoyl]-4-azatricyclo[5.2.1.0^{2,6}]dec-8-ene-3-carboxamide] |  | 1 to 10 |  | > 50 | > 10 | > 10 | 0.1 to 1 | ≥ 10 | < 0.02 | > 100 |  |  |  |  | 
C#CC(C)(C)[C@H](NC(=O)C1(F)CC1)C(=O)N1C[C@H]2[C@@H]([C@H]1C(=O)N[C@H](C#N)C[C@@H]1CCNC1=O)[C@H]1C=C[C@@H]2C1 [Compound 63, (1R,2S,3S,6R,7S)—N-[(1S)-1-cyano-2-[(3S)-2-oxopyrrolidin-3-yl]ethyl]-4-[(2S)-2-[(1-fluorocyclopropyl)formamido]-3,3-dimethylpent-4-ynoyl]-4-azatricyclo[5.2.1.0^{2,6}]dec-8-ene-3-carboxamide] | < 0.02 | < 0.1 | > 100 |  | > 10 | > 10 | < 0.1 | ≥ 10 |  |  |  |  |  |  | 
C[C@@H](OC(C)(C)C)[C@H](NC(=O)C(F)(F)F)C(=O)N1C[C@H]2[C@@H]([C@H]1C(=O)N[C@H](C#N)C[C@@H]1CCNC1=O)[C@H]1C=C[C@@H]2C1 [Example 3, (1R,2S,3S,6R,7S)-4-[(2S,3R)-3-(tert-butoxy)-2-(2,2,2-trifluoroacetamido)butanoyl]-N-[(1S)-1-cyano-2-[(3S)-2-oxopyrrolidin-3-yl]ethyl]-4-azatricyclo[5.2.1.0^{2,6}]dec-8-ene-3-carboxamide] |  | < 0.1 |  | > 50 | > 10 | > 10 | < 0.1 | ≥ 10 | < 0.02 | > 100 | < 0.1 |  |  |  | 
Cc1cc(C(=O)N[C@H](C(=O)N2C[C@H]3[C@@H]([C@H]2C(=O)N[C@H](C#N)C[C@@H]2CCNC2=O)[C@H]2C=C[C@@H]3C2)C(C)(C)C)no1 [Example 4, (1R,2S,3S,6R,7S)—N-[(1S)-1-cyano-2-[(3S)-2-oxopyrrolidin-3-yl]ethyl]-4-[(2S)-3,3-dimethyl-2-[(5-methyl-1,2-oxazol-3-yl)formamido]butanoyl]-4-azatricyclo[5.2.1.0^{2,6}]dec-8-ene-3-carboxamide] | 0.02 to 0.2 | 0.1 to 1 | > 100 | > 50 | > 10 | > 10 | < 0.1 | ≥ 10 |  |  | 0.1 to 1 |  |  |  | 
CC(C)(C)[C@H](NC(=O)c1ccccn1)C(=O)N1C[C@H]2[C@@H]([C@H]1C(=O)N[C@H](C#N)C[C@@H]1CCNC1=O)[C@H]1C=C[C@@H]2C1 [Example 5, (1R,2S,3S,6R,7S)—N-[(1S)-1-cyano-2-[(3S)-2-oxopyrrolidin-3-yl]ethyl]-4-[(2S)-3,3-dimethyl-2-(pyridin-2-ylformamido)butanoyl]-4-azatricyclo[5.2.1.0^{2,6}]dec-8-ene-3-carboxamide] | 0.2 to 2 | 1 to 10 | > 100 | > 50 | > 10 | > 10 | 0.1 to 1 | ≥ 10 |  |  | 1 to 10 |  |  |  | 
CC(C)(C)[C@H](NC(=O)c1cnccn1)C(=O)N1C[C@H]2[C@@H]([C@H]1C(=O)N[C@H](C#N)C[C@@H]1CCNC1=O)[C@H]1C=C[C@@H]2C1 [Example 6, (1R,2S,3S,6R,7S)—N-[(1S)-1-cyano-2-[(3S)-2-oxopyrrolidin-3-yl]ethyl]-4-[(2S)-3,3-dimethyl-2-(pyrazin-2-ylformamido)butanoyl]-4-azatricyclo[5.2.1.0^{2,6}]dec-8-ene-3-carboxamide] |  | 1 to 10 | > 100 |  |  |  | < 0.1 | ≥ 10 | 0.02 to 0.2 |  | 1 to 10 | > 10 | > 10 |  | 
C#CC(C)(C)[C@H](NC(=O)C(F)(F)F)C(=O)N1C[C@H]2[C@@H]([C@H]1C(=O)N[C@H](C#N)C[C@@H]1CCNC1=O)[C@H]1C=C[C@@H]2C1 [Example 7, (1R,2S,3S,6R,7S)—N-[(1S)-1-cyano-2-[(3S)-2-oxopyrrolidin-3-yl]ethyl]-4-[(2S)-3,3-dimethyl-2-(2,2,2-trifluoroacetamido)pent-4-ynoyl]-4-azatricyclo[5.2.1.0^{2,6}]dec-8-ene-3-carboxamide] |  | < 0.1 |  | > 50 | > 10 | > 10 | < 0.1 | ≥ 10 | < 0.02 | > 100 | < 0.1 |  |  |  | 
CC(C)(C)[C@H](NC(=O)C(F)(F)F)C(=O)N1C[C@H]2[C@@H]([C@H]1C(=O)NC(C[C@@H]1CCNC1=O)C(=O)C(=O)NC1CC1)[C@H]1C=C[C@@H]2C1 (stereo partly drawn) [Example 10, N-cyclopropyl-3-{[(1R,2S,3S,6R,7S)-4-[(2S)-3,3-dimethyl-2-(2,2,2-trifluoroacetamido)butanoyl]-4-azatricyclo[5.2.1.0^{2,6}]dec-8-en-3-yl]formamido}-2-oxo-4-[(3S)-2-oxopyrrolidin-3-yl]butanamide] |  |  |  | > 50 |  | > 10 | 0.1 to 1 | ≥ 10 | < 0.02 |  |  |  |  | 0.02 to 0.2 | > 10
CC(C)(C)[C@H](NC(=O)C1(C(F)(F)F)CC1)C(=O)N1C[C@H]2[C@@H]([C@H]1C(=O)N[C@H](C#N)C[C@@H]1CCNC1=O)[C@H]1C=C[C@@H]2C1 [Example 20, (1R,2S,3S,6R,7S)—N-[(1S)-1-cyano-2-[(3S)-2-oxopyrrolidin-3-yl]ethyl]-4-[(2S)-3,3-dimethyl-2-{[1-(trifluoromethyl)cyclopropyl]formamido}butanoyl]-4-azatricyclo[5.2.1.0^{2,6}]dec-8-ene-3-carboxamide] | < 0.02 | 0.1 to 1 | > 100 | > 50 | > 10 | > 10 | < 0.1 | ≥ 10 |  |  | < 0.1 |  |  |  | 
CC(C)(C)[C@H](NC(=O)C(F)(F)F)C(=O)N1C[C@@H]2[C@H]3C[C@@H]([C@@H]2[C@H]1C(=O)N[C@H](C#N)C[C@@H]1CCNC1=O)[C@H](F)C3 [Example 86, (1S,2R,3S,6R,7S,9R)—N-[(1S)-1-cyano-2-[(3S)-2-oxopyrrolidin-3-yl]ethyl]-4-[(2S)-3,3-dimethyl-2-(2,2,2-trifluoroacetamido)butanoyl]-9-fluoro-4-azatricyclo[5.2.1.0^{2,6}]decane-3-carboxamide] |  | < 0.1 |  |  | > 0.5 | > 10 | < 0.1 | ≥ 10 | < 0.02 | > 100 |  |  |  |  | 
